Measurements taken from US20220257774A1, “AROMATIC AMINE AR AHD BET TARGETING PROTEIN DEGRADATION CHIMERA COMPOUND AND USE” (HINOVA PHARMACEUTICALS INC., priority 2019, published 2022).
Like-named read-outs stand apart in the source and are kept apart here.

Tests used:
[1] = system: LNCaP/AR cells; experiment: Inhibition of the proliferation of LNCap/AR cells (CCK-8); assay type: cell-based; conditions: read-out: LNCap/AR IC50
Method in brief: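 LNCaP/AR cells (1000/well, RPMI1640 + 10% FBS) were treated for 6 days at 37 °C with 9-point 3-fold dilutions from 10 μM final, 0.1% DMSO, in duplicate. Viability was read by CCK-8 absorbance at 450 nm after 1 h, and IC50 came from a dose-response-inhibition fit.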

[2] = system: 22RV1 cells; experiment: Inhibition of the proliferation of drug-resistant prostate cancer cell 22RV1 (CCK-8); assay type: cell-based; conditions: 22RV1 cells (enzalutamide-resistant), same method
Protocol: (1) Experimental materials and instruments: LNCaP/AR cell line and 22RV1 cell line (provided by Sichuan Kangcheng Biotechnology Co., Ltd.) Fetal bovine serum FBS (Gibco, Cat. No. 10099-141) 0.01M PBS (Biosharp, Cat. No. 162262) RIPM1640 medium (Hyclone, Cat. No. 308090.01) Penicillin-Streptomycin (Hyclone, Cat. No. SV30010) Cell counting kit-8 (Signalway Antibody, Cat. No. CP002) DMSO (Sigma, Cat. No. D5879) Centrifuge Tube, 15 ml (Excell Bio, Cat. No. CS015-0001) Cell Culture Dish, (Excell Bio, Cat. No. CS016-0128) 96-well cell culture plate (Corning, Cat. No. 3599) Microplate reader (Thermo Multiskan MK3 type)
a. Preparation of Buffer Cell culture medium: RIPM1640 medium, 10% FBS, 1% Pen Strep: PBS buffer: PBS powder was dissolved in 2 L of ultrapure water and sterilized. b. Experimental Procedures 1) LNCaP/AR cells were subcultured in cell culture media, and then the cells in good growth condition were seeded in a 96-well plate at 80 μL/well (1000 cells/well), and cultured overnight in a 37° C., 5% CO2 cell incubator. 2) The drug was prepared into a 10 mM stock solution with dimethyl sulfoxide (DMSO). Prior to use, the stock solution was diluted in a ratio of […] with DMSO, and then diluted at a 3-fold gradient to obtain 9 serial concentrations. Then, each concentration of compound was further diluted in a ratio of 1:200 with the culture medium (to ensure that the DMSO concentration in the culture system was 0.1%), and two wells were set for each concentration. 20 μL of the diluted compound solution was added to the well of the cell culture (with a final concentration of 10 μM, 3.3 μM, 1.1 μM . . . ), and then the plate was gently tapped to thoroughly mix. In addition, the experiment included 3 negative control wells only containing cells and 3 blank control wells only containing culture medium (6 wells were each added with DMSO diluted in a ratio of 1:200 with 20 μL of culture medium). c. Result Detection: 1) After culturing for 6 days, 10 μL of CCK-8 was added to each well, and the plate was further incubated for 1 h in a 37° C., 5% CO2 cell incubator. 2) The absorbance (OD value) was measured at 450 nm with a multifunctional microplate reader. 3) The data was analyzed by the Dose-response-inhibition equation in the software GraphPad Prism5, and the IC50 value was obtained. 2. Biological assay of the inhibition on the proliferation of other drug-resistant prostate cancer cells
The same test method was used to determine the inhibitory activity of the compound according to the present invention against drug-resistant prostate cancer cell 22RV1.

[3] = 144 h, LNCaP/AR cells, 6 days culture, CCK-8
[4] = LNCaP/AR cells, 6 days culture, CCK-8

IC50 [1, 3] [µM]	IC50 ([2]; Homo sapiens) [µM]	IC50 [1, 4] [µM]	IC50 [2] [µM]	SMILES	IC50 ([1]; LNCaP/AR, 144 h) [µM]
> 2	> 2			Cc1ccc(-c2c(C)noc2C)cc1N(CC1CCC(Nc2cc3c(cc2F)C(=O)N(C2CCC(=O)NC2=O)C3=O)CC1)c1ccc(C2(C#N)CC2)cc1 (stereo not drawn) [Compound 161, 1-(4-((5-(3,5-dimethylisoxazol-4-yl)-2-methylphenyl)(((1s,4s)-4-((2-(2,6-dioxopiperidin-3-yl)-6-fluoro-1,3-dicarbonylisoindolin-5-yl)amino)cyclohexyl)methyl)amino)phenyl) phenylcyclopropanecarbonitrile]	
> 2	> 2			Cc1ccc(-c2c(C)noc2C)cc1N(CC1CN(C2CCN(c3ccc4c(c3)C(=O)N(C3CCC(=O)NC3=O)C4)CC2)C1)c1ccc(C2(C#N)CC2)cc1 (stereo not drawn) [Compound 75, 1-(4-((5-(3,5-dimethylisoxazol-4-yl)-2-methylphenyl)((1-(1-(2-(2,6-dioxopiperidin-3-yl)-3-oxoisoindolin-5-yl)piperidin-4-yl)azetidin-3-yl)methyl)amino)phenyl)cyclopropane-1-carbonitrile]	
		< 0.1	> 2	Cc1ccc(-c2c(C)noc2C)cc1N(CC(C)OC1CN(c2cc3c(cc2F)CN(C2CCC(=O)NC2=O)C3=O)C1)c1ccc(C2(C#N)CC2)cc1 (stereo not drawn) [Compound 177]	
> 2	> 2			Cc1ccc(-c2c(C)noc2C)cc1N(CC(C)O[C@@H]1CCN(c2ccc3c(c2)C(=O)N(C2CCC(=O)NC2=O)C3=O)C1)c1ccc(C2(C#N)CC2)cc1 (stereo partly drawn) [Compound 102, 1-(4-((5-(3,5-Dimethylisoxazol-4-yl)-2-methylphenyl)(2-(((3R)-1-(2-(2,6-dioxopiperidin-3-yl)-1,3-dioxoisoindolin-5-yl)pyrrolidin-3-yl)oxy)propyl)amino)phenyl)cyclopropanecarbonitrile]	
		0.101 to 0.5	> 2	Cc1ccc(-c2c(C)noc2C)cc1N(CC1CCC(Nc2ccc3c(c2)C(=O)N(C2CCC(=O)NC2=O)C3=O)CC1)c1ccc(C2(C#N)CC2)cc1 (stereo not drawn) [Compound 116, 1-(4-((5-(3,5-Dimethylisoxazol-4-yl)-2-methylphenyl)((((1r,4r)-4-((2-(2,6-dioxopiperidin-3-yl)-1,3-dioxoisoindolin-5-yl)amino)cyclohexyl)methyl)amino)phenyl)cyclopropanecarbonitrile]	
> 2	> 2			Cc1ccc(-c2c(C)noc2C)cc1N(CC1CN(C2CCN(c3cc4c(cc3F)C(=O)N(C3CCC(=O)NC3=O)C4=O)CC2)C1)c1ccc(C2(C#N)CC2)cc1 (stereo not drawn) [Compound 139, 1-(4-((5-(3,5-dimethylisoxazol-4-yl)-2-methylphenyl)((1-(1-(2-(2,6-dioxopiperidin-3-yl)-6-fluoro-1,3-dioxoisoindolin-5-yl)piperidin-4-yl)azetidin-3-yl)methyl)amino)phenyl)cyclopropane-1-carbonitrile]	
< 0.1	< 0.1			Cc1ccc(-c2c(C)noc2C)cc1N(CCCCNc1ccc2c(c1)CN(C1CCC(=O)NC1=O)C2=O)c1ccc(C2(C#N)CC2)cc1 (stereo not drawn) [Compound 62, 1-(4-((5-(3,5-dimethylisoxazol-4-yl)-2-methylphenyl)(4-((2-(2,6-dioxopiperidin-3-yl)-1-oxoisoindolin-5-yl)amino)butyl)amino)phenyl)cyclopropane-1-nitrile]	
		0.101 to 0.5	0.101 to 0.5	Cc1ccc(-c2c(C)noc2C)cc1N(C[C@H]1CC[C@H](Nc2cc3c(cc2F)CN(C2CCC(=O)NC2=O)C3=O)CC1)c1ccc(C2(C#N)CC2)c(Cl)c1 (stereo partly drawn) [Compound 114]	
0.101 to 0.5	< 0.1			Cc1ccc(-c2c(C)noc2C)cc1N(CCCC1CCN(c2ccc3c(c2)CN(C2CCC(=O)NC2=O)C3=O)CC1)c1ccc(C2(C#N)CC2)cc1 (stereo not drawn) [Compound 32, 1-(4-((5-(3,5-Dimethylisoxazol-4-yl)-2-methylphenyl)(3-(1-(2-(2,6-dioxopiperidin-3-yl)-1-oxoisoindolin-5-yl)piperidin-4-yl)propyl)amino)phenyl)cyclopropane-1-nitrile]	

The remaining lines, values behind:

SMILES	IC50 [1, 3] [µM]	IC50 ([2]; Homo sapiens) [µM]	IC50 [1, 4] [µM]	IC50 [2] [µM]	IC50 ([1]; LNCaP/AR, 144 h) [µM]
Cc1ccc(-c2c(C)noc2C)cc1N(CC1CCC(CNc2ccc3c(c2)C(=O)N(C2CCC(=O)NC2=O)C3)CC1)c1ccc(C#N)c(Cl)c1 (stereo not drawn) [Compound 134, 2-Chloro-4-((5-(3,5-dimethylisoxazol-4-yl)-2-methylphenyl)((1r,4r)-4-((2-(2,6-dioxopiperidin-3-yl)-3-oxoisoindolin-5-yl)amino)methyl)cyclohexyl)methyl)amino)benzonitrile]		< 0.1			0.101 to 0.5
Cc1ccc(-c2c(C)noc2C)cc1N(c1ccc(C2(C#N)CC2)cc1)C1CN([C@H]2CC[C@H](Nc3cc4c(cc3F)C(=O)N(C3CCC(=O)NC3=O)C4=O)CC2)C1 (stereo partly drawn) [Compound 74]			> 2	> 2	
Cc1ccc(-c2c(C)noc2C)cc1N(CCCCNc1cc2c(cc1F)CN(C1CCC(=O)NC1=O)C2=O)c1ccc(C#N)c(Cl)c1 (stereo not drawn) [Compound 166, 2-Chloro-4-((5-(3,5-dimethylisoxazol-4-yl)-2-methylphenyl)(4-((2-(2,6-dioxopiperidin-3)-6-fluoro-3-isoindolinone-5-yl)amino)butyl)amino)benzonitrile]		< 0.1			0.101 to 0.5
Cc1ccc(-c2c(C)noc2C)cc1N(c1ccc(C2(C#N)CC2)cc1)C1CN(CC2CN(c3ccc4c(c3)C(=O)N(C3CCC(=O)NC3=O)C4=O)C2)C1 (stereo not drawn) [Compound 67, 1-(4-((5-(3,5-dimethylisoxazol-4-yl)-2-methylphenyl)(1-((1-(2-(2,6-dioxopiperidin-3-yl)-1,3-dioxoisoindolin-5-yl)azetidin-3-yl)methyl)azetidine-3-yl)amino)phenyl)cyclopropane-1-carbonitrile]	0.101 to 0.5	< 0.1			
Cc1ccc(-c2c(C)noc2C)cc1N(CC(C)OC1CN(c2cc3c(cc2F)C(=O)N(C2CCC(=O)NC2=O)C3=O)C1)c1ccc(C2(C#N)CC2)cc1 (stereo not drawn) [Compound 173, 1-(4-((5-(3,5-dimethylisoxazol-4-yl)-2-methylphenyl)(2-((1-(2-(2,6-dioxopiperidin-3-yl)-6-fluoro-1,3-dioxoisoindolin-5-yl)azacyclobutane-3-yl)oxy)propyl)amino)phenyl)cyclopropane-1-nitrile]	0.501 to 2	0.101 to 0.5			
CC(=O)O[C@@H]1C[C@@H](C(=O)N[C@@H](C)c2ccc(-c3scnc3C)cc2)N(C(=O)[C@@H](NC(=O)COCCCCCN(c2ccc(C#N)c(Cl)c2)c2cc(-c3c(C)n[nH]c3C)ccc2C)C(C)(C)C)C1 [Compound 45]		> 2			0.501 to 2
Cc1ccc(-c2c(C)noc2C)cc1N(CC1CC(Nc2cc3c(cc2F)CN(C2CCC(=O)NC2=O)C3=O)C1)c1ccc(C2(C#N)CC2)cc1 (stereo not drawn) [Compound 38]	> 2	0.501 to 2			
Cc1ccc(-c2c(C)noc2C)cc1N(CC1CCC(CNc2ccc3c(c2)CN(C2CCC(=O)NC2=O)C3=O)CC1)c1ccc(C#N)c(Cl)c1 (stereo not drawn) [Compound 133, 2-Chloro-4-((5-(3,5-dimethylisoxazol-4-yl)-2-methylphenyl)((1r,4r)-4-((2-(2,6-dioxopiperidin-3-yl)-1-oxoisoindolin-5-yl)amino)methyl)cyclohexyl)methyl)amino)benzonitrile]		< 0.1			< 0.1
Cc1ccc(-c2c(C)noc2C)cc1N(CCCOC1CN(c2ccc3c(c2)C(=O)N(C2CCC(=O)NC2=O)C3)C1)c1ccc(C2(C#N)CC2)cc1 (stereo not drawn) [Compound 121, 1-(4-((5-(3,5-dimethylisoxazol-4-yl)-2-methylphenyl)(3-((1-(2-(2,6-dioxopiperidin-3-yl)-3-oxoisoindolin-5-yl)azetidin-3-yl)oxy)propyl)amino)phenyl)cyclopropane-1-nitrile]	0.101 to 0.5	< 0.1			
